# Data from US20250353873A1, “COMPOUNDS AND METHODS FOR MODULATING APOE EXPRESSION” (Ionis Pharmaceuticals, Inc., priority 2024, published 2025).
# Strand notation (5' to 3'): a small letter for the sugar, then the base; units joined by * are phosphorothioate-linked, units joined directly phosphodiester-linked; [ ] holds rarer units or linkages, { } end groups; capitals alone tell only the bases. [ms] = mesyl phosphoramidate linkage; e = 2'-O-(2-methoxyethyl) (MOE); [5mC] = 5-methylcytosine; d = 2'-deoxy (DNA)
# Experiments:
# human APOE RNA [1] = assay: Activity in APOE C57BL/6NTac-Apoeem7250 knock-in mice, single ICV bolus, 8 weeks (Example 11); assay type: in vivo; settings: single ICV bolus 300 μg, 8 weeks post treatment, normalized to mouse Ppia
# Description: Modified oligonucleotides described above were tested in the APOE C57BL/6NTac-Apoeem7250 knock-in mouse model described above.
# Each mouse received a single ICV bolus of 300 μg of modified oligonucleotide. A group of 3-4 mice received a single ICV bolus with PBS as a negative control.
# Eight weeks post treatment, mice were sacrificed and RNA was extracted from cortical brain tissue and spinal cord for quantitative real-time RT-PCR analysis of RNA expression of APOE using human primer probe set RTS3073 (described herein above). APOE RNA levels were normalized to mouse Ppia. Mouse Ppia was amplified using primer probe set m_cyclo24 (described herein above). Results are presented as percent human APOE RNA relative to the amount of human APOE RNA in PBS treated animals, (% control). Each experiment is identified in separate tables below.
# human APOE RNA [2] = assay: Activity in APOE C57BL/6NTac-Apoeem7250 knock-in mice, single ICV bolus, 16 weeks (Example 12); assay type: in vivo; settings: single ICV bolus 300 μg, 16 weeks post treatment, normalized to mouse Ppia
# Outline: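 A single 300 μg intracerebroventricular dose was given, with PBS-treated mice as reference; cortical and spinal cord tissue was taken 16 weeks later. RT-qPCR quantified human APOE RNA, Ppia-normalized, expressed relative to PBS animals (% control).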
Substance,APOE RNA (% control) Cortex (human APOE RNA [1]) [% control],APOE RNA (% control) Spinal Cord (human APOE RNA [1]) [% control],APOE RNA (% control) Cortex (human APOE RNA [2]) [% control],APOE RNA (% control) Spinal Cord (human APOE RNA [2]) [% control]
"1693044: 5-10-5 MOE gapmer CTTGGTGAATCTTTATTAAA, linkages sssoszzzzssssssssss (antisense e[5mC]*eT*eT*eGeG*dT[ms]dG[ms]dA[ms]dA[ms]dT*d[5mC]*dT*dT*dT*dA*eT*eT*eA*eA*eA) [compound 1693044]",86,95,98,63
"1693084: 6-10-4 MOE gapmer TTGGTGAATCTTTATTAAAC, linkages ssssszzzszsszzsssss (eT*eT*eG*eG*eT*eG[ms]dA[ms]dA[ms]dT*d[5mC][ms]dT*dT*dT[ms]dA[ms]dT*dT*eA*eA*eA*e[5mC]) [compound 1693084]",72,115,89,86
"1693049: 5-10-5 MOE gapmer CTTGGTGAATCTTTATTAAA, linkages ssssszzzzssssszssss (antisense e[5mC]*eT*eT*eG*eG*dT[ms]dG[ms]dA[ms]dA[ms]dT*d[5mC]*dT*dT*dT*dA[ms]eT*eT*eA*eA*eA) [compound 1693049]",101,96,93,81
"1693045: 5-10-5 MOE gapmer CTTGGTGAATCTTTATTAAA, linkages ssssozzzzssssssssss (antisense e[5mC]*eT*eT*eG*eGdT[ms]dG[ms]dA[ms]dA[ms]dT*d[5mC]*dT*dT*dT*dA*eT*eT*eA*eA*eA) [compound 1693045]",88,86,93,60
"1693042: 5-10-5 MOE gapmer CTTGGTGAATCTTTATTAAA, linkages sssosszzzssssssssss (antisense e[5mC]*eT*eT*eGeG*dT*dG[ms]dA[ms]dA[ms]dT*d[5mC]*dT*dT*dT*dA*eT*eT*eA*eA*eA) [compound 1693042]",77,81,90,65
"1693039: 5-10-5 MOE gapmer CTTGGTGAATCTTTATTAAA, linkages sssosszzzssssssooss (antisense e[5mC]*eT*eT*eGeG*dT*dG[ms]dA[ms]dA[ms]dT*d[5mC]*dT*dT*dT*dA*eTeTeA*eA*eA) [compound 1693039]",90,71,127,99
"1693082: 6-10-4 MOE gapmer TTGGTGAATCTTTATTAAAC, linkages ssssoozzszssszsssss (eT*eT*eG*eG*eTeGdA[ms]dA[ms]dT*d[5mC][ms]dT*dT*dT*dA[ms]dT*dT*eA*eA*eA*e[5mC]) [compound 1693082]",113,54,81,72
"1693041: 5-10-5 MOE gapmer CTTGGTGAATCTTTATTAAA, linkages ssossszzzssssssosss (antisense e[5mC]*eT*eTeG*eG*dT*dG[ms]dA[ms]dA[ms]dT*d[5mC]*dT*dT*dT*dA*eTeT*eA*eA*eA) [compound 1693041]",75,74,84,85
"1693040: 5-10-5 MOE gapmer CTTGGTGAATCTTTATTAAA, linkages sssosszzzssssssosss (antisense e[5mC]*eT*eT*eGeG*dT*dG[ms]dA[ms]dA[ms]dT*d[5mC]*dT*dT*dT*dA*eTeT*eA*eA*eA) [compound 1693040]",80,77,92,71
"1652903: 6-10-4 MOE gapmer ACTTGGTGAATCTTTATTAA, linkages sooooossssssssssoss (antisense eA*e[5mC]eTeTeGeGdT*dG*dA*dA*dT*d[5mC]*dT*dT*dT*dA*eTeT*eA*eA) [compound 1652903]",49,19,87,39
"1693085: 6-10-4 MOE gapmer TTGGTGAATCTTTATTAAAC, linkages ssssszzzsssszzsssss (eT*eT*eG*eG*eT*eG[ms]dA[ms]dA[ms]dT*d[5mC]*dT*dT*dT[ms]dA[ms]dT*dT*eA*eA*eA*e[5mC]) [compound 1693085]",86,79,93,71
"1693050: 5-10-5 MOE gapmer TTGGTGAATCTTTATTAAAC, linkages soosszzzsssssssosss (antisense eT*eTeGeG*eT*dG[ms]dA[ms]dA[ms]dT*d[5mC]*dT*dT*dT*dA*dT*eTeA*eA*eA*e[5mC]) [compound 1693050]",77,63,100,63
"1681021: 5-10-5 MOE gapmer GGTGAATCTTTATTAAACTA, linkages zsssszsssszzssssssz (antisense eG[ms]eG*eT*eG*eA*dA[ms]dT*d[5mC]*dT*dT*dT[ms]dA[ms]dT*dT*dA*eA*eA*e[5mC]*eT[ms]eA) [compound 1681021]",55,68,91,40
"1681005: 5-10-5 MOE gapmer GGTGAATCTTTATTAAACTA, linkages ssssszsssszzszsssss (antisense eG*eG*eT*eG*eA*dA[ms]dT*d[5mC]*dT*dT*dT[ms]dA[ms]dT*dT[ms]dA*eA*eA*e[5mC]*eT*eA) [compound 1681005]",101,70,116,68
"1693047: 5-10-5 MOE gapmer CTTGGTGAATCTTTATTAAA, linkages sssoszzzzssssszosss (antisense e[5mC]*eT*eT*eGeG*dT[ms]dG[ms]dA[ms]dA[ms]dT*d[5mC]*dT*dT*dT*dA[ms]eTeT*eA*eA*eA) [compound 1693047]",78,77,97,71
"1693043: 5-10-5 MOE gapmer CTTGGTGAATCTTTATTAAA, linkages sssoszzzzssssssosss (antisense e[5mC]*eT*eT*eGeG*dT[ms]dG[ms]dA[ms]dA[ms]dT*d[5mC]*dT*dT*dT*dA*eTeT*eA*eA*eA) [compound 1693043]",89,83,80,73
"1693052: 5-10-5 MOE gapmer TTGGTGAATCTTTATTAAAC, linkages sossszzzsssssssosss (antisense eT*eTeG*eG*eT*dG[ms]dA[ms]dA[ms]dT*d[5mC]*dT*dT*dT*dA*dT*eTeA*eA*eA*e[5mC]) [compound 1693052]",65,79,91,85
"1681006: 5-10-5 MOE gapmer GGTGAATCTTTATTAAACTA, linkages ssssszsssszzszzssss (antisense eG*eG*eT*eG*eA*dA[ms]dT*d[5mC]*dT*dT*dT[ms]dA[ms]dT*dT[ms]dA[ms]eA*eA*e[5mC]*eT*eA) [compound 1681006]",85,71,120,80
"1681007: 5-10-5 MOE gapmer GGTGAATCTTTATTAAACTA, linkages zsssszsssszzszssszz (antisense eG[ms]eG*eT*eG*eA*dA[ms]dT*d[5mC]*dT*dT*dT[ms]dA[ms]dT*dT[ms]dA*eA*eA*e[5mC][ms]eT[ms]eA) [compound 1681007]",71,47,96,67
"1681003: 5-10-5 MOE gapmer GGTGAATCTTTATTAAACTA, linkages soooszsssszzszsooss (antisense eG*eGeTeGeA*dA[ms]dT*d[5mC]*dT*dT*dT[ms]dA[ms]dT*dT[ms]dA*eAeAe[5mC]*eT*eA) [compound 1681003]",90,48,106,61
